# Source: PubChem BioAssay (NCI)
#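 Dose response: 5 concentrations. Exposure: 48 h. Format: 96-well plates. Endpoint: linear interpolation; highest concentration if not reached. At the TGI there is no net growth.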
# Experiments:
# Test in all cases: NCI-60 cell line screen, 48 h
# [1] = test system: TK-10 renal
# [2] = test system: HL-60(TB) leukemia
# [3] = test system: HCC-2998 colon
# [4] = test system: SNB-19 CNS
# [5] = test system: BT-549 breast
# [6] = test system: HCT-15 colon
# [7] = test system: UO-31 renal
# [8] = test system: NCI/ADR-RES ovarian
# [9] = test system: SF-268 CNS
# [10] = test system: KM12 colon
# [11] = test system: MOLT-4 leukemia
# [12] = test system: NCI-H226 lung
# [13] = test system: COLO 205 colon
# [14] = test system: SK-MEL-28 melanoma
# [15] = test system: RPMI-8226 leukemia
# [16] = test system: UACC-62 melanoma
# [17] = test system: OVCAR-3 ovarian
# [18] = test system: SR leukemia
# [19] = test system: T-47D breast
# [20] = test system: HT29 colon
# [21] = test system: MDA-N
# [22] = test system: K-562 leukemia
# [23] = test system: IGROV1 ovarian
# [24] = test system: SK-OV-3 ovarian
# [25] = test system: SF-295 CNS
# [26] = test system: HCT-116 colon
# [27] = test system: SNB-75 CNS
# [28] = test system: SK-MEL-5 melanoma
# [29] = test system: OVCAR-5 ovarian
# [30] = test system: MDA-MB-231 breast
# [31] = test system: ACHN renal
# [32] = test system: 786-0 renal
# [33] = test system: OVCAR-4 ovarian
# [34] = test system: CAKI-1 renal
# [35] = test system: MDA-MB-435
# [36] = test system: A549 NSCLC
# [37] = test system: SW-620 colon
# [38] = test system: MALME-3M melanoma
# [39] = test system: HS 578T breast
# [40] = test system: MCF7 breast
# [41] = test system: LOX IMVI melanoma
# [42] = test system: NCI-H23 lung
# [43] = test system: HOP-92 NSCLC
# [44] = test system: PC-3 prostate
# [45] = test system: OVCAR-8 ovarian
# [46] = test system: DU-145 prostate
# [47] = test system: NCI-H522 lung
# [48] = test system: SK-MEL-2 melanoma
# [49] = test system: EKVX NSCLC
# [50] = test system: NCI-H460 lung
# [51] = test system: CCRF-CEM leukemia
# [52] = test system: M14 melanoma
# [53] = test system: RXF 393 renal
# [54] = test system: UACC-257 melanoma
# [55] = test system: SN12C renal
# [56] = test system: HOP-62 NSCLC
# [57] = test system: SF-539 CNS
# [58] = test system: U251 CNS
compound,measurement,setting,value
COC(=O)C(C)(Cc1ccc2c(c1)nnn2C(C)=O)NC(C)=O (configuration not stated),TGI,[1],> 100 µM
same,TGI,[2],> 100 µM
same,TGI,[3],> 100 µM
same,TGI,[4],> 100 µM
same,TGI,[5],> 100 µM
same,TGI,[6],> 100 µM
same,TGI,[7],> 100 µM
same,TGI,[8],> 100 µM
same,TGI,[9],> 100 µM
same,TGI,[10],> 100 µM
same,TGI,[11],> 100 µM
same,TGI,[12],> 100 µM
same,TGI,[13],> 100 µM
same,TGI,[14],> 100 µM
same,TGI,[15],> 100 µM
same,TGI,[16],> 100 µM
same,TGI,[17],> 100 µM
same,TGI,[18],> 100 µM
same,TGI,[19],> 100 µM
same,TGI,[20],> 100 µM
same,TGI,[21],> 100 µM
same,TGI,[22],> 100 µM
same,TGI,[23],> 100 µM
same,TGI,[24],> 100 µM
same,TGI,[25],> 100 µM
same,TGI,[26],> 100 µM
same,TGI,[27],> 100 µM
same,TGI,[28],> 100 µM
same,TGI,[29],> 100 µM
same,TGI,[30],> 100 µM
same,TGI,[31],> 100 µM
same,TGI,[32],> 100 µM
same,TGI,[33],> 100 µM
same,TGI,[34],> 100 µM
same,TGI,[35],> 100 µM
same,TGI,[36],> 100 µM
same,TGI,[37],> 100 µM
same,TGI,[38],> 100 µM
same,TGI,[39],> 100 µM
same,TGI,[40],> 100 µM
same,TGI,[41],> 100 µM
same,TGI,[42],> 100 µM
same,TGI,[43],> 100 µM
same,TGI,[44],> 100 µM
same,TGI,[45],> 100 µM
same,TGI,[46],> 100 µM
same,TGI,[47],> 100 µM
same,TGI,[48],> 100 µM
same,TGI,[49],> 100 µM
same,TGI,[50],> 100 µM
same,TGI,[51],> 100 µM
same,TGI,[52],> 100 µM
same,TGI,[53],> 100 µM
same,TGI,[54],> 100 µM
CN=c1oc2ccccc2cc1C(N)=O,TGI,[1],> 100 µM
same,TGI,[55],> 100 µM
same,TGI,[2],> 100 µM
same,TGI,[3],> 100 µM
same,TGI,[4],> 100 µM
same,TGI,[5],> 100 µM
same,TGI,[6],> 100 µM
same,TGI,[7],> 100 µM
same,TGI,[8],> 100 µM
same,TGI,[9],> 100 µM
same,TGI,[10],> 100 µM
same,TGI,[11],> 100 µM
same,TGI,[12],> 100 µM
same,TGI,[13],> 100 µM
same,TGI,[14],> 100 µM
same,TGI,[15],> 100 µM
same,TGI,[16],> 100 µM
same,TGI,[17],> 100 µM
same,TGI,[18],> 100 µM
same,TGI,[19],> 100 µM
same,TGI,[20],> 100 µM
same,TGI,[21],> 100 µM
same,TGI,[22],> 100 µM
same,TGI,[23],> 100 µM
same,TGI,[24],> 100 µM
same,TGI,[25],> 100 µM
same,TGI,[26],> 100 µM
same,TGI,[56],> 100 µM
same,TGI,[27],> 100 µM
same,TGI,[28],> 100 µM
same,TGI,[30],> 100 µM
same,TGI,[31],> 100 µM
same,TGI,[32],> 100 µM
same,TGI,[34],> 100 µM
same,TGI,[35],> 100 µM
same,TGI,[36],> 100 µM
same,TGI,[57],> 100 µM
same,TGI,[37],> 100 µM
same,TGI,[39],> 100 µM
same,TGI,[40],> 100 µM
same,TGI,[41],> 100 µM
same,TGI,[42],> 100 µM
same,TGI,[43],> 100 µM
same,TGI,[44],> 100 µM
same,TGI,[45],> 100 µM
same,TGI,[58],> 100 µM
same,TGI,[46],> 100 µM
same,TGI,[47],> 100 µM
same,TGI,[48],> 100 µM
same,TGI,[49],> 100 µM
same,TGI,[50],> 100 µM
same,TGI,[51],> 100 µM
same,TGI,[52],> 100 µM
same,TGI,[53],> 100 µM
same,TGI,[54],> 100 µM
CC(=O)OCC1OC(NC(=S)CCSc2nc3ccccc3c(=O)n2-c2ccccc2)C(OC(C)=O)C(OC(C)=O)C1OC(C)=O (configuration not stated),TGI,[55],> 100 µM
same,TGI,[2],88.1 µM
same,TGI,[3],> 100 µM
same,TGI,[4],> 100 µM
same,TGI,[5],> 100 µM
same,TGI,[6],> 100 µM
same,TGI,[7],> 100 µM
same,TGI,[8],> 100 µM
same,TGI,[9],> 100 µM
same,TGI,[10],> 100 µM
same,TGI,[11],> 100 µM
same,TGI,[12],> 100 µM
same,TGI,[13],> 100 µM
same,TGI,[14],> 100 µM
same,TGI,[15],> 100 µM
same,TGI,[16],> 100 µM
same,TGI,[17],> 100 µM
same,TGI,[18],> 100 µM
same,TGI,[19],> 100 µM
same,TGI,[20],> 100 µM
same,TGI,[21],> 100 µM
same,TGI,[22],> 100 µM
same,TGI,[23],25.1 µM
same,TGI,[24],> 100 µM
same,TGI,[25],> 100 µM
same,TGI,[26],> 100 µM
same,TGI,[56],> 100 µM
same,TGI,[27],60.7 µM
same,TGI,[28],> 100 µM
same,TGI,[29],> 100 µM
same,TGI,[30],> 100 µM
same,TGI,[31],> 100 µM
same,TGI,[32],> 100 µM
same,TGI,[34],> 100 µM
same,TGI,[35],> 100 µM
same,TGI,[36],> 100 µM
same,TGI,[57],34 µM
same,TGI,[37],> 100 µM
same,TGI,[38],> 100 µM
same,TGI,[39],> 100 µM
same,TGI,[40],> 100 µM
same,TGI,[41],> 100 µM
same,TGI,[42],> 100 µM
same,TGI,[43],98.1 µM
same,TGI,[44],> 100 µM
same,TGI,[45],> 100 µM
same,TGI,[58],> 100 µM
same,TGI,[46],> 100 µM
same,TGI,[47],> 100 µM
same,TGI,[48],76.3 µM
same,TGI,[49],> 100 µM
same,TGI,[50],> 100 µM
same,TGI,[51],> 100 µM
same,TGI,[52],> 100 µM
same,TGI,[53],58.2 µM
same,TGI,[54],> 100 µM
Cc1cc(O)c(C=NC(=S)C(N)=S)c(=O)o1,TGI,[1],> 100 µM
same,TGI,[55],> 100 µM
same,TGI,[2],> 100 µM
same,TGI,[3],> 100 µM
same,TGI,[4],> 100 µM
same,TGI,[5],> 100 µM
same,TGI,[6],> 100 µM
same,TGI,[7],> 100 µM
same,TGI,[8],> 100 µM
same,TGI,[9],> 100 µM
same,TGI,[10],> 100 µM
same,TGI,[11],> 30.1 µM
same,TGI,[12],> 100 µM
same,TGI,[13],> 100 µM
same,TGI,[14],> 100 µM
same,TGI,[15],> 100 µM
same,TGI,[16],> 100 µM
same,TGI,[17],> 100 µM
same,TGI,[18],> 100 µM
same,TGI,[19],> 100 µM
same,TGI,[20],> 100 µM
same,TGI,[21],> 100 µM
same,TGI,[22],> 100 µM
same,TGI,[23],> 100 µM
same,TGI,[24],> 100 µM
same,TGI,[25],> 100 µM
same,TGI,[26],> 100 µM
same,TGI,[56],> 100 µM
same,TGI,[27],> 100 µM
same,TGI,[28],> 100 µM
same,TGI,[29],> 100 µM
same,TGI,[30],> 100 µM
same,TGI,[31],> 100 µM
same,TGI,[32],> 100 µM
same,TGI,[33],> 100 µM
same,TGI,[34],> 100 µM
same,TGI,[35],> 100 µM
same,TGI,[36],> 100 µM
same,TGI,[57],> 100 µM
same,TGI,[37],> 100 µM
same,TGI,[39],> 100 µM
same,TGI,[40],> 100 µM
same,TGI,[41],> 100 µM
same,TGI,[42],> 100 µM
same,TGI,[43],> 100 µM
same,TGI,[44],> 100 µM
same,TGI,[45],> 100 µM
same,TGI,[58],> 100 µM
same,TGI,[46],> 100 µM
same,TGI,[47],> 100 µM
same,TGI,[48],> 100 µM
same,TGI,[49],> 100 µM
same,TGI,[50],> 100 µM
same,TGI,[51],> 100 µM
same,TGI,[52],> 100 µM
same,TGI,[53],> 100 µM
same,TGI,[54],> 100 µM
Clc1ccc(C(c2ccc(Cl)cc2)c2cncnc2)cc1,TGI,[1],30.8 µM
same,TGI,[55],36.6 µM
same,TGI,[2],> 100 µM
same,TGI,[4],33 µM
same,TGI,[5],27.4 µM
same,TGI,[6],39.1 µM
same,TGI,[7],25.1 µM
same,TGI,[8],44.4 µM
same,TGI,[9],33.8 µM
same,TGI,[10],37 µM
same,TGI,[11],67.6 µM
same,TGI,[13],33.2 µM
same,TGI,[14],33.4 µM
same,TGI,[15],> 100 µM
same,TGI,[16],28.7 µM
same,TGI,[17],27.9 µM
same,TGI,[18],> 100 µM
same,TGI,[19],32.3 µM
same,TGI,[20],28.3 µM
same,TGI,[21],29.3 µM
same,TGI,[22],> 100 µM
same,TGI,[23],33.8 µM
same,TGI,[24],33.4 µM
same,TGI,[25],35.6 µM
same,TGI,[26],26.9 µM
same,TGI,[56],31.3 µM
same,TGI,[28],25.9 µM
same,TGI,[29],29.5 µM
same,TGI,[30],34 µM
same,TGI,[31],36.4 µM
same,TGI,[32],33 µM
same,TGI,[33],29 µM
same,TGI,[34],39.7 µM
same,TGI,[35],28 µM
same,TGI,[36],38.5 µM
same,TGI,[38],36.1 µM
same,TGI,[39],39.9 µM
same,TGI,[40],30 µM
same,TGI,[41],31.2 µM
same,TGI,[42],36.9 µM
same,TGI,[44],27.3 µM
same,TGI,[45],42.5 µM
same,TGI,[58],32.1 µM
same,TGI,[46],31.3 µM
same,TGI,[47],33.3 µM
same,TGI,[50],31.4 µM
same,TGI,[51],44.8 µM
same,TGI,[52],30 µM
same,TGI,[53],25.2 µM
same,TGI,[54],49.1 µM
